The assay concerns HepG2 cells. Description: Colony forming assay. In kind it is cell-based, human. Particulars: HepG2, 100 μM. Here is the method:
HepG2 cells were allowed to attach to form a complete monolayer after seeding 200 cells per well (6-well plate) for 24 h. Five concentrations of compound 4 (0.01, 0.1, 1, 10, 100 µM) were added to the cultured cells, and cells were incubated for 48 h, followed by washing with PBS. After 7 days of incubation, the colonies were fixed and stained with 1% crystal violet in methanol for 3 h. Finally, the crystal violet stain was used for 20 min to stain and count the cells using the light microscope.

Broadly, the inhibition is the change of the read-out against control, counted positive when it falls. Regarding `O=C1NC(=S)N(c2ccc(O)cc2)/C1=C/c1cccs1` [Compound 4, (E)-1-(4-Hydroxyphenyl)-5-(thiophen-2-ylmethylene)-2-thioxoimidazolidin-4-one], the number of colonies (464 in control) came out at 136. Moreover, the inhibition at 100 µM (Homo sapiens, 48 h treatment, read-out: colony inhibition rate) was approximately 88%.

The values are drawn from PMC8746798, “Evaluation of 2-Thioxoimadazolidin-4-one Derivatives as Potent Anti-Cancer Agents through Apoptosis Induction and Antioxidant Activation: In Vitro and In Vivo Approaches” (Molecules, 2021).
